In patent publication US20210085467A1, “SELECTIVE TARGETED RELEASE” (WEST VIRGINIA UNIVERSITY, priority 2018, published 2021):

How the values were obtained:
free floating bacteria = assay: Drug levels necessary to treat free floating bacteria; settings: planktonic bacteria
biofilm infections = assay: Drug levels necessary to treat biofilm infections

## CN[C@H](CC(C)C)C(=O)N[C@H]1C(=O)N[C@@H](CC(N)=O)C(=O)N[C@H]2C(=O)N[C@H]3C(=O)N[C@H](C(=O)N[C@H](C(=O)O)c4cc(O)cc(O)c4-c4cc3ccc4O)[C@H](O)c3ccc(c(Cl)c3)Oc3cc2cc(c3O[C@@H]2O[C@H](CO)[C@@H](O)[C@H](O)[C@H]2O[C@H]2C[C@](C)(N)[C@H](O)[C@H](C)O2)Oc2ccc(cc2Cl)[C@H]1O [vancomycin]
Free floating bacteria
  drug levels necessary to treat free floating bacteria: 1 to 10 µg/mL
Biofilm infections
  drug levels necessary to treat biofilm infections: 10 to 100 µg/mL
